Consider 18 molecules from ChEMBL document CHEMBL1143921, “Structure-based design and synthesis of benzimidazole derivatives as dipeptidyl peptidase IV inhibitors” (Bioorg Med Chem Lett, 2008).

Molecules are shown by their SMILES.

The nature of data set [1]: in vitro. The settings on record: rat, liver microsomes. (In general: Microsomes from liver hold many membrane-bound enzymes, among them those of drug oxidation.)
Data set [2] in a line: in vitro. The following applies: human, liver microsomes.
A short description of data set [3]: Half life in rat at 11.6 mg/kg, po. The data set is classed as ADME, organism-based. Also noted: dose 11.6 mg/kg, route oral. The settings on record: in vivo.
Data set [4] is described as follows: Volume of distribution at steady state in rat at 1.0 mg/kg, iv or 11.6 mg/kg, po. Type of data set: ADME, organism-based. The settings on record: in vivo, read-out: Vdss.
The nature of data set [5]: Bioavailability in rat at 11.6 mg/kg, po. The data set is classed as ADME, organism-based. The settings on record: in vivo.
Data set [6] is described as follows: Half life in rat at 1.0 mg/kg, iv. The data set is classed as ADME, organism-based. Further details: dose 1 mg/kg, route intravenous. The following applies: in vivo.
The nature of data set [7]: AUC in rat at 11.6 mg/kg, po. Type of data set: ADME, organism-based. Also noted: dose 11.6 mg/kg, route oral. The settings on record: plasma.
Data set [8] is described as follows: Half life in rat at 8 mg/kg, po. Type of data set: ADME, organism-based. Also noted: dose 8 mg/kg, route oral. The following applies: in vivo.
Data set [9] is described as follows: Half life in rat at 0.8 mg/kg, iv. The settings on record: in vivo. Also noted: dose 0.8 mg/kg, route intravenous. The data set is classed as ADME, organism-based.
A short description of data set [10]: Bioavailability in rat at 8 mg/kg, po. The data set is classed as ADME, organism-based. The settings on record: in vivo.
Data set [11] can be described thus: Volume of distribution at steady state in rat at 0.8 mg/kg, iv or 8 mg/kg, po. The data set is classed as ADME, organism-based. The following applies: in vivo, read-out: Vdss.
Data set [12] can be described thus: AUC in rat at 8 mg/kg, po. Type of data set: ADME, organism-based. Further details: dose 8 mg/kg, route oral. The settings on record: plasma.
A short description of data set [13]: Half life in rat at 8.4 mg/kg, po. The settings on record: in vivo. Also noted: dose 8.4 mg/kg, route oral. The data set is classed as ADME, organism-based.
Data set [14] can be described thus: AUC in rat at 8.4 mg/kg, po. Type of data set: ADME, organism-based. Also noted: dose 8.4 mg/kg, route oral. The settings on record: plasma.
The nature of data set [15]: Bioavailability in rat at 8.4 mg/kg, po. The following applies: in vivo. Type of data set: ADME, organism-based.
Data set [16] can be described thus: Volume of distribution at steady state in rat at 0.7 mg/kg, iv or 8.4 mg/kg, po. The data set is classed as ADME, organism-based. The settings on record: in vivo, read-out: Vdss.
Data set [17] in a line: Half life in rat at 0.7 mg/kg, iv. The data set is classed as ADME, organism-based. Further details: dose 0.7 mg/kg, route intravenous. The settings on record: in vivo.

One may read the half-life as how long it takes for the measured level to halve. Higher therefore signals slow loss. For `Cn1cnc2ccc(-c3ccccc3CO)c(CN)c21`, the half-life in [1] worked out at 0.65 h; in data set [2] it was 1.67 h.
As for `Cc1nc2ccc(-c3ccccc3Cl)c(CN)c2n1C`, the half-life is 0.117 h in [1] and over 3.33 h in [2].
For the molecule `NCc1c(-c2ccc(Cl)cc2Cl)ccc2nc[nH]c12`, the half-life in data set [1] amounted to 0.767 h; in [2] it was 2.15 h.
With `CCc1nc2ccc(-c3ccccc3Cl)c(CN)c2n1C`, the half-life was 0.0333 h in [1] and over 3.33 h in data set [2].
In the case of `COCc1nc2ccc(-c3ccccc3Cl)c(CN)c2n1C`, the figures for the half-life in data set [1] and in [2] were 0.183 h and over 3.33 h, respectively.
For orientation: AUC means the area under the concentration-time curve, a measure of exposure. High values mean more exposure, low ones less exposure. Turning to `Cn1cnc2cc(C#N)c(-c3ccccc3Cl)c(CN)c21`, the half-life in data set [3] was 2.9 h; in [1] it was 0.633 h; in data set [2] it was over 3.33 h; in data set [6], 3.8 h. Moreover, the Vd in data set [4] came out at 1.07 L/kg. Further, the bioavailability in data set [5] is 122%. The molecule also registered an AUC in data set [7] of 22100 ng·h/mL.
`Cn1cnc2ccc(-c3ccccc3)c(CN)c21`: the half-life in [1] is 0.767 h; in data set [2], 1.55 h.
For the molecule `NCc1c(-c2ccccc2Cl)ccc2ncn(Cc3ccccc3)c12`, the half-life stood at 0.0667 h in data set [1] and 0.133 h in data set [2].
On to `Cn1cnc2ccc(-c3ccc(Cl)cc3Cl)c(CN)c21`, for which the half-life in data set [8] is 4.4 h; in data set [9], 7 h; in data set [1] it was 0.767 h; in [2], over 3.33 h. For the same molecule, the bioavailability in data set [10] worked out at 100%. The Vd in data set [11] is 4.81 L/kg. Besides, in data set [12], the AUC worked out at 11500 ng·h/mL.
As for `CCn1cnc2ccc(-c3ccc(Cl)cc3Cl)c(CN)c21`, the half-life in [1] is 0.7 h; in [2], over 3.33 h.
Take `Cn1c(-c2cccnc2)nc2ccc(-c3ccccc3Cl)c(CN)c21`: the half-life in data set [1] amounted to 0.433 h; in data set [2], 1.6 h.
Consider `NCc1c(-c2ccccc2Cl)ccc2ncn(CCO)c12`, for which the half-life in data set [1] was 0.533 h; in data set [2] it was over 3.33 h.
Regarding `Cn1cnc2ccc(-c3ccccc3Cl)c(CN)c21`, the half-life in data set [1] was 0.95 h; in [2], over 3.33 h.
For the molecule `Cn1c(=O)[nH]c2ccc(-c3ccccc3Cl)c(CN)c21`, the half-life in data set [13] was 4 h; in [1] it was 1.27 h; in data set [2], over 3.33 h; in [17], 4.2 h. This molecule also yielded an AUC in data set [14] of 9000 ng·h/mL. Moreover, in data set [15], the bioavailability stood at 49%. Moreover, in data set [16], the Vd was determined as 1.14 L/kg.
Consider `Cc1ccccc1-c1ccc2ncn(C)c2c1CN`, for which the half-life in data set [1] came to 0.467 h; in [2] it was 3.05 h.
In the case of `Cn1nnc2ccc(-c3ccccc3Cl)c(CN)c21`, the half-life in data set [1] came to 0.217 h; in data set [2], 0.483 h.
Consider `Cn1cnc2cc(C(N)=O)c(-c3ccccc3Cl)c(CN)c21`, for which the half-life in [1] and in data set [2] was over 3.33 h in each case.
Consider `Cn1cnc2cc(Br)c(-c3ccccc3Cl)c(CN)c21`, for which the figures for the half-life in data set [1] and in data set [2] were 0.4 h and 2.93 h, respectively.
